# In ChEMBL document CHEMBL1201861, “Genomics of Drug Sensitity in Cancer screening data, Wellcome Trust Sanger Institute”:
# pIC50: −log10 of the molar value.
# Legend:
# Experiment in all cases: cells
# SF-295 = type: functional, cell-based; conditions: Homo sapiens;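 further: growth inhibition of SF-295 cells, read out with a cell viability assay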
# Description: SANGER: Inhibition of human SF295 cell growth in a cell viability assay.
# CaR-1 = type: functional, cell-based; conditions: Homo sapiens;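 further: growth inhibition of human CaR-1 cancer cells, read out with a cell viability assay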
# Description: SANGER: Inhibition of human CaR-1 cell growth in a cell viability assay.
# UMC-11 = type: functional, cell-based; conditions: Homo sapiens;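 further: growth inhibition of UMC-11 cells, read out with a cell viability assay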
# Description: SANGER: Inhibition of human UMC-11 cell growth in a cell viability assay.
# CAL-120 = type: functional, cell-based; conditions: Homo sapiens;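 further: cell growth inhibition, read out as cell viability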
# Description: SANGER: Inhibition of human CAL-120 cell growth in a cell viability assay.
# RPMI-2650 = type: functional, cell-based; conditions: Homo sapiens
# Description: SANGER: Inhibition of human RPMI-2650 cell growth in a cell viability assay.
# KYSE-510 = type: functional, cell-based; conditions: Homo sapiens;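 further: cell viability readout used to measure how strongly growth of the cell line is suppressed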
# Description: SANGER: Inhibition of human KYSE-510 cell growth in a cell viability assay.
# GAMG = type: functional, cell-based; conditions: Homo sapiens;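 further: cell growth inhibition measured by a viability assay in the GAMG human cell line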
# Description: SANGER: Inhibition of human GAMG cell growth in a cell viability assay.
# KYSE-140 = type: functional, cell-based; conditions: Homo sapiens;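 further: cell viability assay measuring growth inhibition in human KYSE-140 cells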
# Description: SANGER: Inhibition of human KYSE-140 cell growth in a cell viability assay.
# A673 = type: functional, cell-based; conditions: Homo sapiens;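 further: growth inhibition of human A673 cells, read out through a cell viability assay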
# Description: SANGER: Inhibition of human A673 cell growth in a cell viability assay.
# HSC-3 = type: functional, cell-based; conditions: Homo sapiens
# Description: SANGER: Inhibition of human HSC-3 cell growth in a cell viability assay.
# NUGC-3 = type: functional, cell-based; conditions: Homo sapiens;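 further: growth inhibition of human NUGC-3 cells, read out with a cell viability assay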
# Description: SANGER: Inhibition of human NUGC-3 cell growth in a cell viability assay.
# SW948 = type: functional, cell-based; conditions: Homo sapiens;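 further: growth inhibition of SW948 cells, read out with a cell viability assay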
# Description: SANGER: Inhibition of human SW948 cell growth in a cell viability assay.
# JEG-3 = type: functional, cell-based; conditions: Homo sapiens;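 further: growth inhibition of human JEG-3 cells, read out with a cell viability assay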
# Description: SANGER: Inhibition of human JEG-3 cell growth in a cell viability assay.
# HCC1937 = type: functional, cell-based; conditions: Homo sapiens;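 further: growth inhibition measured with a cell viability read-out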
# Description: SANGER: Inhibition of human HCC1937 cell growth in a cell viability assay.
# 639-V = type: functional, cell-based; conditions: Homo sapiens;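 further: growth inhibition of 639-V cells, read out with a cell viability assay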
# Description: SANGER: Inhibition of human 639-V cell growth in a cell viability assay.
# PANC-08-13 = type: functional, cell-based; conditions: Homo sapiens;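 further: cell growth inhibition, measured with a cell viability assay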
# Description: SANGER: Inhibition of human PANC-08-13 cell growth in a cell viability assay.
# COLO-678 = type: functional, cell-based; conditions: Homo sapiens
# Description: SANGER: Inhibition of human COLO-678 cell growth in a cell viability assay.
# HuP-T4 = type: functional, cell-based; conditions: Homo sapiens;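 further: cell viability assay measuring how much HuP-T4 cell growth is inhibited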
# Description: SANGER: Inhibition of human HuP-T4 cell growth in a cell viability assay.
# HT1197 = type: functional, cell-based, HT-1197; conditions: Homo sapiens
# Description: SANGER: Inhibition of human HT-1197 cell growth in a cell viability assay.
# NB14 = type: functional, cell-based, Homo sapiens; conditions: Homo sapiens, NB14;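 further: growth inhibition of NB14 cells measured with a cell viability assay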
# Description: SANGER: Inhibition of human NB14 cell growth in a cell viability assay.
# NCI-H2170 = type: functional, cell-based; conditions: Homo sapiens;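 further: cell viability assay measuring growth inhibition of human NCI-H2170 cancer cells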
# Description: SANGER: Inhibition of human NCI-H2170 cell growth in a cell viability assay.
# PFSK-1 = type: functional, cell-based; conditions: Homo sapiens;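 further: cell viability assay measuring how strongly compounds suppress growth of human PFSK-1 cells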
# Description: SANGER: Inhibition of human PFSK-1 cell growth in a cell viability assay.
# BPH-1 = type: functional, cell-based; conditions: Homo sapiens;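 further: cell viability assay measuring growth inhibition of human BPH-1 cells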
# Description: SANGER: Inhibition of human BPH-1 cell growth in a cell viability assay.
# AU565 = type: functional, cell-based; conditions: Homo sapiens;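 further: cell viability assay measuring growth inhibition of human AU565 cells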
# Description: SANGER: Inhibition of human AU565 cell growth in a cell viability assay.
# COLO-680N = type: functional, cell-based; conditions: Homo sapiens;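 further: cell viability assay used to measure inhibition of COLO-680N cell growth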
# Description: SANGER: Inhibition of human COLO-680N cell growth in a cell viability assay.
# HuCCT-1 = type: functional, cell-based, HuCCT1; conditions: Homo sapiens;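 further: growth inhibition of HuCCT-1 cells, read out by a cell viability assay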
# Description: SANGER: Inhibition of human HuCCT1 cell growth in a cell viability assay.
# DoTc2-4510 = type: functional, cell-based; conditions: Homo sapiens
# NCI-H2405 = type: functional, cell-based; conditions: Homo sapiens;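 further: growth inhibition of the human cell line, read out with a cell viability assay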
# Description: SANGER: Inhibition of human NCI-H2405 cell growth in a cell viability assay.
# Detroit 562 = type: functional, cell-based; conditions: Homo sapiens;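 further: growth inhibition of human Detroit 562 cells, read out by a cell viability assay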
# Description: SANGER: Inhibition of human Detroit562 cell growth in a cell viability assay.
# NCI-H727 = type: functional, cell-based; conditions: Homo sapiens;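 further: growth inhibition of human NCI-H727 cells, read out with a cell viability assay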
# Description: SANGER: Inhibition of human NCI-H727 cell growth in a cell viability assay.
# NCI-H2122 = type: functional, cell-based; conditions: Homo sapiens;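 further: growth inhibition of the cells, read out with a cell viability assay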
# Description: SANGER: Inhibition of human NCI-H2122 cell growth in a cell viability assay.
# LN-405 = type: functional, cell-based; conditions: Homo sapiens
# Description: SANGER: Inhibition of human LN-405 cell growth in a cell viability assay.
# T47D = type: functional, cell-based; conditions: Homo sapiens;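 further: growth inhibition of human T47D cells, measured with a cell viability assay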
# Description: SANGER: Inhibition of human T47D cell growth in a cell viability assay.
# H4 = type: functional, cell-based; conditions: Homo sapiens
# Description: SANGER: Inhibition of human H4 cell growth in a cell viability assay.
# GCT = type: functional, cell-based; conditions: Homo sapiens;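 further: GCT cell line proliferation inhibition, read out with a cell viability assay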
# Description: SANGER: Inhibition of human GCT cell growth in a cell viability assay.
# MOLT-13 = type: functional, cell-based; conditions: Homo sapiens;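 further: IC50 for suppression of MOLT-13 cell growth, read out with a cell viability assay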
# Description: SANGER: Inhibition of human MOLT-13 cell growth in a cell viability assay.
# HLE = type: functional, cell-based; conditions: Homo sapiens;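 further: growth inhibition of human HLE cells, read out by a cell viability assay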
# Description: SANGER: Inhibition of human HLE cell growth in a cell viability assay.
# HGC-27 = type: functional, cell-based; conditions: Homo sapiens;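 further: growth inhibition of human HGC-27 cells, read out in a cell viability assay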
# Description: SANGER: Inhibition of human HGC-27 cell growth in a cell viability assay.
smiles,measurement,setting,value
NC1(c2ccc(-c3nc4ccn5c(=O)[nH]nc5c4cc3-c3ccccc3)cc2)CCC1 [MK-2206],pIC50,SF-295,< 5.40
same,pIC50,CaR-1,< 5.40
same,pIC50,UMC-11,< 5.40
same,pIC50,CAL-120,< 5.40
same,pIC50,RPMI-2650,< 5.40
same,pIC50,KYSE-510,< 5.40
same,pIC50,GAMG,5.65
same,pIC50,KYSE-140,< 5.40
same,pIC50,A673,< 5.40
same,pIC50,HSC-3,< 5.40
same,pIC50,NUGC-3,< 5.40
same,pIC50,SW948,< 5.40
same,pIC50,JEG-3,< 5.40
same,pIC50,HCC1937,< 5.40
same,pIC50,639-V,< 5.40
same,pIC50,PANC-08-13,< 5.40
same,pIC50,COLO-678,< 5.40
same,pIC50,HuP-T4,< 5.40
same,pIC50,HT1197,< 5.40
same,pIC50,NB14,< 5.40
same,pIC50,NCI-H2170,< 5.40
same,pIC50,PFSK-1,< 5.40
same,pIC50,BPH-1,< 5.40
same,pIC50,AU565,< 5.40
same,pIC50,COLO-680N,< 5.40
same,pIC50,HuCCT-1,< 5.40
same,pIC50,DoTc2-4510,< 5.40
same,pIC50,NCI-H2405,< 5.40
same,pIC50,Detroit 562,< 5.40
same,pIC50,NCI-H727,< 5.40
same,pIC50,NCI-H2122,< 5.40
same,pIC50,LN-405,< 5.40
same,pIC50,T47D,6.55
same,pIC50,H4,5.46
same,pIC50,GCT,< 5.40
same,pIC50,MOLT-13,< 5.40
same,pIC50,HLE,< 5.40
same,pIC50,HGC-27,6.25
